Measured values reported in article PMC11173677, “Identification and Evaluation of Olive Phenolics in the Context of Amine Oxidase Enzyme Inhibition and Depression: In Silico Modelling and In Vitro Validation” (Molecules, 2024).

Key:
[1] = target: T1, purified MAO-B (Homo sapiens, UniProt P27338); experiment: MAO-B direct screening assay (inhibitor screening kit); format: biochemical; settings: purified enzyme; read-out: IC50, inhibition of MAO-B
T1 construct: purchased Sigma-Aldrich MAK296
T1 sequence (P27338 1-520): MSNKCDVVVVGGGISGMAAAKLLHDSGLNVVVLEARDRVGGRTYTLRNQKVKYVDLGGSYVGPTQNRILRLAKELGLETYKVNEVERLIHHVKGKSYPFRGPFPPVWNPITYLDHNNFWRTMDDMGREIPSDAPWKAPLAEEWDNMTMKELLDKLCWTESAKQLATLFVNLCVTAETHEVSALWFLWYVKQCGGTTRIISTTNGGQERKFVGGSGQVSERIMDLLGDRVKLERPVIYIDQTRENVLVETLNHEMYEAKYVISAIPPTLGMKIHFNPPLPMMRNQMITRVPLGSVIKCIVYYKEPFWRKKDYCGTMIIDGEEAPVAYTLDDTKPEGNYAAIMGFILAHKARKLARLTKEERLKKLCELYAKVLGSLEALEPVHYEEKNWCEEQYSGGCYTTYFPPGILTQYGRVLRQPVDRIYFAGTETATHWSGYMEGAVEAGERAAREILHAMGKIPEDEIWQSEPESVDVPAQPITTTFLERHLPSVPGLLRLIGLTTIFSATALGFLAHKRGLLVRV
Method: (§1) The assays were conducted for MAO-A and MAO-B according to the manufacturer’s instructions.

[2] = target: purified LSD1 (Homo sapiens, UniProt O60341); experiment: LSD1 direct screening assay (Epigentek inhibitory screening kit); format: biochemical; settings: direct incubation with purified LSD1, Epigentek kit; read-out: IC50, inhibition of LSD1
Method: Fluorescence was measured using a CLARIOstar Plus Microplate Reader (BMG Labtech, Ortenberg, Germany) at excitation and emission wavelengths of 530 nm and 590 nm, respectively (Ex/Em = 530/590 nm).

[3] = system: H3K4 mono-methylation; experiment: H3K4 mono-methylation in BJ cells (Western blotting); format: cell-based, human; settings: 50 μM, 48 h, compared to untreated cells; effects more pronounced with DEX
Method: As described in the Supplementary Information, nuclear proteins extracted from the BJ cultures were directly assayed for LSD1 activity (Epigentek P-3076, Farmingdale, NY, USA). Fluorescence was read on a CLARIOstar Microplate Reader (BMG Labtech, Ortenberg, Germany) at Ex/Em = 530/590 nm (Figure S4). Histone proteins were extracted from the treated cultures and were analysed through Western blotting. The mono-methylation status of lysine on histone 3 (H3K4) was determined via immunodetection (Table S6).
100µL of Nuclear Extraction Buffer containing 0.2µL 1M DTT and 0.4µL PIC was then added to the remaining nuclei-containing pellets. Full resuspension was achieved through multiple rounds of vigorous vortexing and ice incubations (to maintain protein integrity). Once the entire pellet was visibly resuspended in NEB, tubes were centrifuged at 16,000g for 10 minutes. The resulting supernatant containing the nuclear extract fraction was transferred to clean 0.5mL tubes and stored at -80°C.
Acid extraction of histone proteins
Cells were washed in 10mL of pre-chilled PBS (1X) and detached from flask surface via mechanical disruption using a cell scraper. Cell solution was then transferred into a 15mL tube and centrifuged at 150g for 10 minutes. Supernatant was then discarded and the remaining cell pellet resuspended in 0.5mL PBS (1X) and transferred into a 1.5mL microcentrifuge tube. Cells were then centrifuged at 9400g for 20 seconds, after which the supernatant was removed and discarded. The remaining pellet was then briefly resuspended in 600µL of acid extraction lysis buffer (10mM KCl, 10mM HEPES, […]) containing cOmplete™ Mini Protease Inhibitor Cocktail (Sigma-Aldrich, Roche 11836153001, MO USA) and 0.3µL 1M DTT. This will cause cells to pre-swell, resulting in a reduced amount of PBS (1X) remaining in the microcentrifuge tube that may deter maximal cell lysis capacity. Cells were then centrifuged at 9400g for 20 seconds with the resultant supernatant aspirated and discarded. […]

[4] = target: T2, LSD1 (Homo sapiens, UniProt O60341); experiment: LSD1 fluorescence coupling enzyme assay (Reaction Biology Corporation); format: biochemical; settings: Reaction Biology Corp., 30 min pre-incubation, 10 μM histone H3(1-21)K4me2 peptide substrate; read-out: IC50, LSD1 demethylase activity
T2 construct: Reaction Biology Corporation (performed the assay)
Method: The inhibitory activity of HCl 489479, OLC, and OLP was measured using a fluorescence coupling enzyme assay (performed by Reaction Biology Corporation). […] All compounds were pre-incubated for 30 min with the enzyme before the addition of 10 μM histone H3(1-21)K4me2 peptide substrate to start the reaction. Fluorescence was measured using an EnVision Multimode Plate Reader at Ex/Em = 535/590.

[5] = target: T3, purified MAO-A (Homo sapiens, UniProt P21397); experiment: MAO-A direct screening assay (inhibitor screening kit); format: biochemical; settings: purified enzyme; read-out: IC50, inhibition of MAO-A
T3 construct: purchased Sigma-Aldrich MAK295
T3 sequence (P21397 1-527): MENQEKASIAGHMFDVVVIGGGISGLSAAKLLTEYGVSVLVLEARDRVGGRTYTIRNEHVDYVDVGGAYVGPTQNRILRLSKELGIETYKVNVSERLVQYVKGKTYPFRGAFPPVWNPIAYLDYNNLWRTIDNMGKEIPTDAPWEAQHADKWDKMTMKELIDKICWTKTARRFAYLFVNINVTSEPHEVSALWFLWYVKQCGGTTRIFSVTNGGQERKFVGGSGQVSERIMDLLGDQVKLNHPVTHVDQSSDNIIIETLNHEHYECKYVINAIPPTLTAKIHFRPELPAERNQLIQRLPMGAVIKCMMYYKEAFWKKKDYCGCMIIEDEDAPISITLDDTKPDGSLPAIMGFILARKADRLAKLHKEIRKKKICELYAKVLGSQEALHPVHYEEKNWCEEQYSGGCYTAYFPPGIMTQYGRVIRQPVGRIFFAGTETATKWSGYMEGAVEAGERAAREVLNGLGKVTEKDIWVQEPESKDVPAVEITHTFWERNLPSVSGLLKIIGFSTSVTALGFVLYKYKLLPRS
Method: as §1

[6] = system: T4, LSD1; experiment: LSD1 activity in nuclear extracts of BJ cells stimulated with DEX; format: cell-based, human; settings: DEX 50 μM 72 h, then TCP 5 μM or OLP, HT, HTA 50 μM for 48 h
T4 construct: nuclear proteins extracted from the BJ cultures were directly assayed for LSD1 activity; endogenous in cells; host or cells: BJ human foreskin fibroblasts (nuclear extract, DEX-stimulated)
Method: Histone demethylase LSD1 activity assay
4µL of nuclear extracts containing 5µg protein was added to designated strip wells with stably
captured LSD1 substrate (H3K4me2), followed by an additional 26µL of H3K4me2 (HG3)
substrate diluted in assay buffer (HG2). In no enzyme control wells, the 4µL of nuclear
extracts was replaced with 4µL of assay buffer. Blank wells contained 30µL of assay buffer.
A standard curve was generated by adding 1µL of standard (HG4) at incrementally increasing
concentrations (0.1-10ng/µL) to 29µL of assay buffer in designated standard wells. After all
wells were loaded appropriately, the assay plate was incubated away from light at room
temperature for 60 minutes. Following incubation, contents were aspirated and wells were
washed three times with 150µL of wash buffer (HG1). 50µL of capture antibody (HG5)
diluted at a 1:1000 ratio was then added to all wells before incubating at room temperature
for 60 minutes on a rotating platform. Well contents were then aspirated and washed four
times with 150µL of wash buffer. 50µL of detection antibody (HG6) diluted at a 1:1000 ration
was then added to each well. Assay plate was then incubated for a final time at room
temperature for 30 minutes. Well contents were aspirated again, followed by six washes with
150µL wash buffer. 50µL of fluoro-developer (HG7) was then added into each well and
allowed to develop away from light for 1-5 minutes. Fluorescence was then read on a
CLARIOstar Microplate Reader (BMG Labtech, Ortenberg Germany) at Ex/Em =

[7] = system: MAO-A; parameters: method as in PMID 30809547; settings: cited from earlier work
[8] = system: MAO-B; parameters: method as in PMID 30809547; settings: cited from earlier work
[9] = system: T5, MAO-A; experiment: MAO-A activity assay in hESC-derived neurons stimulated with ATRA; format: cell-based, human; settings: 1 μM ATRA 24 h, then TCP 5 μM, OLC 50 μM or OLP 50 μM for 24 h
T5 construct: endogenous in cells; host or cells: BJ human foreskin fibroblasts stimulated with DEX or HC
Method: (§2) An in vitro model of MDD was designed for stem cell-derived neuronal cells through incubation of 1 μM all-trans retinoic acid (Sigma-Aldrich PHR1187, St. Louis, MO, USA). All cell treatments were conducted in duplicate and replicated using independently differentiating neuronal plates.
(§3) Activity assays were commercially sourced from BioVision (Abcam, BioVision ab241031, Waltham, MA, USA) and were performed according to manufacturer’s instructions. The treatment groups were plated in duplicate on a black, flat 96-well microplate. The cells were homogenised in assay buffer using a microtube mixer at 4 °C and centrifuged at 10,000× g for 10 min. A Bradford assay was performed to determine the total protein concentration within each cell pellet (200 μg/well for BJ cells, 40 μg/well for hESC-derived neurons). Approximately 40 μL of supernatant was loaded into wells along with 10 μL of either […], or assay buffer for total MAO activity. A H2O2 standard was pipetted as supplied and 50 μL of reaction mix was pipetted into all wells. Using a CLARIOstar Plus Microplate Reader, (BMG Labtech, Ortenberg, Germany), fluorescence was measured kinetically at 25 °C for 60 min with Ex/Em = 535/587 nm.

[10] = system: T6, MAO-B; experiment: MAO-B activity assay in hESC-derived neurons stimulated with ATRA; format: cell-based, human; settings: 1 μM ATRA 24 h, then TCP 5 μM, OLC 50 μM or OLP 50 μM for 24 h
T6 construct: endogenous in cells; host or cells: BJ human foreskin fibroblasts stimulated with DEX or HC
Method: as §2, §3

[11] = system: total MAO; experiment: Total MAO activity assay in hESC-derived neurons stimulated with ATRA; format: cell-based, human; settings: 1 μM ATRA 24 h, then TCP 5 μM, OLC 50 μM or OLP 50 μM for 24 h
Method: as §2, §3

[12] = target: MAO-B; parameters: method as in PMID 17915852; settings: read-out: inhibition constant, MAO-B; cited from earlier work
[13] = target: MAO-A; parameters: method as in PMID 17915852; settings: read-out: inhibition constant, MAO-A; cited from earlier work
[14] = system: human skin fibroblasts; parameters: method as in PMID 37432217; settings: in comparison to untreated controls, at certain doses; cited from earlier work

## CC(=O)OCCc1ccc(O)c(O)c1 [HTA, hydroxytyrosol acetate]
[1]
  IC50: 91400 nM
[2]
  IC50: 1100 nM
[3]
  baseline levels of H3K4 mono-methylation in BJ cells: increased
[4]
  IC50: 31 nM
[5]
  IC50: 700 nM
[6]
  LSD1 activity in BJ cultures stimulated with DEX: significant reduction

## COc1cc(/C=C/c2ccc(O)cc2)cc(OC)c1 [pterostilbene]
[7]
  IC50: 13400 nM
[8]
  IC50: 138 nM

## Oc1ccc(/C=C/c2cc(O)cc(O)c2)cc1 [resveratrol]
[7]
  IC50: 313 nM
[8]
  IC50: 15800 nM

## N[C@@H]1C[C@H]1c1ccccc1 (racemic) [TCP, tranylcypromine, reference compound]
[9]
  MAO-A activity in hESC-derived neurons: significantly reduced
[10]
  MAO-B activity in hESC-derived neurons: significantly reduced
[6]
  LSD1 activity in BJ cultures stimulated with DEX: significant reduction
[11]
  total MAO activity in hESC-derived neurons: significantly reduced

## CNCc1cc(=O)oc2cc(OCc3cccc(Cl)c3)ccc12 [7-(3-chlorobenzyloxy)-4-(methylamino)methyl-coumarin]
[12]
  Ki: 100 nM
[13]
  Ki: 15700 nM

## OCCc1ccc(O)c(O)c1 [HT, hydroxytyrosol]
[2]
  IC50: 39 nM
[3]
  baseline levels of H3K4 mono-methylation in BJ cells: increased
[4]
  IC50: 570 nM
[5]
  IC50: 430 nM
[6]
  LSD1 activity in BJ cultures stimulated with DEX: significant reduction
[14]
  growth capacity of human skin fibroblasts: significantly increased

## isoeugenol
[8]
  IC50: 102000 nM

## O=Cc1cc(=O)oc2cc(OCc3cccc(Cl)c3)ccc12 [7-(3-chlorobenzyloxy)-4-carboxaldehyde-coumarin]
[12]
  Ki: 400 nM
[13]
  Ki: 11000 nM
